From ChEMBL document CHEMBL1201862, “PubChem BioAssay data set” (2004)
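Protocol summary: plate cells (96-well), add compound at 5 concentrations, incubate 48 h, interpolate endpoints linearly. GI50: concentration for 50% inhibition of growth.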 Calls of active or inactive are those of the source. Rule as the data show it: active = GI50 up to about 1.1 µM and inactive = higher.

Experiments:
Experiment in all cases: DTP human tumour cell line panel, 48 h
[1] = tested on: A549
[2] = tested on: ACHN
[3] = tested on: COLO 205
[4] = tested on: EKVX
[5] = tested on: HCC 2998
[6] = tested on: HCT-15
[7] = tested on: HL-60
[8] = tested on: Hs-578T
[9] = tested on: IGROV-1
[10] = tested on: NCI-H522
[11] = tested on: OVCAR-3
[12] = tested on: OVCAR-4
[13] = tested on: RPMI-8226
[14] = tested on: SF-295
[15] = tested on: SK-MEL-28
[16] = tested on: SK-MEL-2
[17] = tested on: SK-MEL-5
[18] = tested on: U-251
[19] = tested on: MDA-N

SMILES | GI50 [1] | GI50 [2] | GI50 [3] | GI50 [4] | GI50 [5] | GI50 [6] [µM] | GI50 [7] | GI50 [8] | GI50 [9] | GI50 [10] | GI50 [11] | GI50 [12] | GI50 [13] | GI50 [14] | GI50 [15] | GI50 [16] | GI50 [17] | GI50 [18] | GI50 [19]
CCCC[C@@H]1CCN2C[C@@H](O)[C@@H](O)[C@H]2[C@@H]1O | > 100 µM (inactive) | > 100 µM (inactive) | > 100 µM (inactive) | > 100 µM (inactive) | > 100 µM (inactive) | > 100 | > 100 µM (inactive) | > 100 µM (inactive) | > 100 µM (inactive) | > 100 µM (inactive) | > 100 µM (inactive) | > 100 µM (inactive) | > 100 µM (inactive) | > 100 µM (inactive) | > 100 µM (inactive) | > 100 µM (inactive) | > 100 µM (inactive) | > 100 µM (inactive) | –
Cc1ccccc1/N=N/c1ccc(/N=N/c2c(O)ccc3cc(S(=O)(=O)O)cc(S(=O)(=O)O)c23)c(C)c1 | > 100 µM (inactive) | > 100 µM (inactive) | > 100 µM (inactive) | > 100 µM (inactive) | > 100 µM (inactive) | > 100 | > 100 µM (inactive) | > 100 µM (inactive) | > 100 µM (inactive) | > 100 µM (inactive) | > 100 µM (inactive) | > 100 µM (inactive) | > 100 µM (inactive) | > 100 µM (inactive) | > 100 µM (inactive) | > 100 µM (inactive) | > 100 µM (inactive) | > 100 µM (inactive) | –
CN(CCCN1C(=O)c2cccc3cc([N+](=O)[O-])cc(c23)C1=O)CCN(C)CCCN1C(=O)c2cccc3cc([N+](=O)[O-])cc(c23)C1=O | 19.2 µM (inactive) | 17.9 µM (inactive) | 23.4 µM (inactive) | > 39.3 µM (inactive) | 21.2 µM (inactive) | 32.6 | 19.6 µM (inactive) | – | 16 µM (inactive) | > 39.3 µM (inactive) | > 39.3 µM (inactive) | 27.4 µM (inactive) | 2.23 µM (inactive) | 22.3 µM (inactive) | 25.5 µM (inactive) | 13.3 µM (inactive) | 17.4 µM (inactive) | 15.2 µM (inactive) | –
COC(OC)[C@@H]1OC[C@H](n2cnc3c(N)ncnc32)[C@H]1O | > 100 µM (inactive) | > 100 µM (inactive) | > 100 µM (inactive) | > 100 µM (inactive) | > 100 µM (inactive) | > 100 | – | > 100 µM (inactive) | > 100 µM (inactive) | – | > 100 µM (inactive) | > 100 µM (inactive) | > 100 µM (inactive) | > 100 µM (inactive) | > 100 µM (inactive) | > 100 µM (inactive) | > 100 µM (inactive) | > 100 µM (inactive) | > 100 µM (inactive)
O=C1CCCCC/C1=C\c1ccc([N+](=O)[O-])cc1 | 36.5 µM (inactive) | 21.5 µM (inactive) | 24 µM (inactive) | 35.3 µM (inactive) | 17.1 µM (inactive) | – | 28.9 µM (inactive) | – | 16.3 µM (inactive) | – | 21.9 µM (inactive) | – | 33.3 µM (inactive) | 35.2 µM (inactive) | 65 µM (inactive) | 33 µM (inactive) | 20.1 µM (inactive) | 31.3 µM (inactive) | 42.4 µM (inactive)
COc1cc(/C=C/C(=O)C2(C(=O)/C=C/c3cc(OC)c(OC)c(OC)c3)CCCCC2)cc(OC)c1OC | > 100 µM (inactive) | 62.1 µM (inactive) | 78.9 µM (inactive) | 27.5 µM (inactive) | 58.6 µM (inactive) | 33.3 | 52 µM (inactive) | 29.6 µM (inactive) | 27.4 µM (inactive) | 30.1 µM (inactive) | 23.3 µM (inactive) | 46.6 µM (inactive) | 18.3 µM (inactive) | 34.8 µM (inactive) | 46.3 µM (inactive) | > 100 µM (inactive) | 34.8 µM (inactive) | 30.1 µM (inactive) | –
CC(=O)O[C@@H]1C2=C(C)C=C(O2)[C@H]2O[C@]2(C)C[C@H]2C=C(C(=O)O2)[C@H](OC(C)=O)CC1[C@@]1(C)CO1 (stereo partly specified) | 45.3 µM (inactive) | 23.7 µM (inactive) | 14.1 µM (inactive) | 26.2 µM (inactive) | > 100 µM (inactive) | 22 | – | – | 14.3 µM (inactive) | 3.23 µM (inactive) | – | 27.7 µM (inactive) | 13.9 µM (inactive) | 36.1 µM (inactive) | 19.4 µM (inactive) | 56.1 µM (inactive) | 35.7 µM (inactive) | 19.1 µM (inactive) | 30.3 µM (inactive)
CCOC(=O)c1c(/C=N\Nc2ccccc2)nc2ccccc2c1-c1ccccc1 | 50.9 µM (inactive) | 32.7 µM (inactive) | 24 µM (inactive) | 61.9 µM (inactive) | 21.8 µM (inactive) | 13.6 | 15 µM (inactive) | – | 67.1 µM (inactive) | 24.9 µM (inactive) | 31.7 µM (inactive) | 29.9 µM (inactive) | 20.1 µM (inactive) | 61.5 µM (inactive) | 70.8 µM (inactive) | 40.8 µM (inactive) | 31.2 µM (inactive) | 38.2 µM (inactive) | –
